Entries after “also recorded” stand apart in the source; their conditions may differ.
Assays:
MBP-ANAT fusion enzyme [1] = biological target: T1, MBP-ANAT fusion enzyme (Homo sapiens, UniProt Q8N9F0); assay: DTNB-based ANAT enzyme activity assay, substrate kinetics; type: biochemical; conditions: for catalytic efficiency as alternative substrate relative to physiological substrate: alternative acetyl group acceptor vs L-aspartate; for alternative substrate activity: screen of amino acid library of 160 compounds
T1 construct: the full length ANAT enzyme has been expressed and purified in a fusion construct with MBP; made in house; host or cells: E. coli NiCo21(DE3)
T1 sequence (Q8N9F0 1-302): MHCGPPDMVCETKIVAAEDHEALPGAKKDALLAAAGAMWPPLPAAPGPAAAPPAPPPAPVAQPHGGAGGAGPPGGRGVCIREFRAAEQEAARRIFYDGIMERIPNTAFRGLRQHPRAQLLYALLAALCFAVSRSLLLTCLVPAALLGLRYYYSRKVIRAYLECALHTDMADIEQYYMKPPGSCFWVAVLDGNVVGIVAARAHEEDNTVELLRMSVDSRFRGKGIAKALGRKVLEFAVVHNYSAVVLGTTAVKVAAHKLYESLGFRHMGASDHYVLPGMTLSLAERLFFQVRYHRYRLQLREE
Description: (§1) The ANAT activity was measured by an established DTNB-based assay in which the coenzyme A product participates in a thiol exchange reaction with DTNB. This assay is illustrated in FIGS. 4A-4B. The resulting TNB^2− ion was monitored at 412 nm (c=14.15 mM^−1cm^−1) using a SpectraMax 190 spectrophotometer plate reader (Molecular Devices, CA).
(§2) The DTNB-based assay was used to measure the kinetic parameters for the physiological substrates and some alternative ANAT substrates.
The kinetic parameters for the physiological substrates of ANAT were determined using the assay described above by varying the concentrations of both substrates and fitting the data to the equation for a sequential kinetic mechanism (eq. 1). […] A screen for alternative substrates was conducted using a customized amino acid library containing a total of 160 compounds.

membrane-bound ANAT = biological target: T2, membrane-bound ANAT (Homo sapiens, UniProt Q8N9F0); assay: Detergent solubilization/extraction of native ANAT from membrane fraction
T2 construct: polyhistidine tag (C); made in house; host or cells: E. coli BL21(DE3), membrane fraction
T2 sequence (Q8N9F0 1-302): T1 sequence (Q8N9F0 1-302)
Description: The human nat8l gene was cloned into the pETDEST42 plasmid using the Gateway cloning technology (Life Technologies). This plasmid was used to transform E. coli BL21(DE3) cells for protein production. The cells were grown at 37° C. to an A600 of 0.6-0.8 in Luria-Bertani (LB) medium containing 100 μg/mL ampicillin, and gene expression was then induced with 1 mM isopropyl […] (IPTG) at 28° C. for 5 hours. The cell pellet was resuspended in buffer A [50 mM HEPES, 500 mM NaCl and 10% glycerol (pH 7.4)] and lysed by sonication on ice for 8 min with 30 s pulse on and 2 min pulse off cycle. The cell lysate was centrifuged at 11,000 rpm for 30 minutes to pellet cell debris and unlysed cells. The membrane fraction was collected by high-speed centrifugation of the supernatant at 40,000 rpm for 1 h. Solubilization trials of ANAT from the membrane fraction were conducted with a variety of different detergents that include ionic, non-ionic, and zwitterionic detergents. Twenty microliter aliquots of the resuspended membrane fraction were mixed with different amounts of stock detergent solutions each prepared at 10 times their critical micelle concentration (CMC), leading to a final concentration of 1.5×CMC and […]. These solutions were incubated at room temperature for 1 h or at 4° C. overnight in a rocking platform.

MBP-ANAT fusion enzyme [2] = biological target: T1, MBP-ANAT fusion enzyme; assay: Effect of detergents on ANAT activity (DTNB-based assay, saturating substrates); type: biochemical; conditions: incubation with detergent at CMC
Description: This assay is illustrated in FIGS. 4A-4B.
(§3) The effect of detergent properties on ANAT activity was tested using a variety of different detergents, each at their critical micelle concentration (CMC) levels. All measurements were conducted at least in duplicate by using the DTNB-based assay at saturating substrates levels. The effect of an organic solvent on ANAT activity was also evaluated by varying the DMSO concentration in the assay from 0 to 50%. To test the stability of the purified MBP-ANAT-his construct, the enzyme was stored at 4° C. for several days and activity was monitored daily. To test for the optimal long term storage conditions, the enzyme activity was followed through multiple freeze-thaw cycles between −80° C. and room temperature.

[3] = biological target: ANAT fusion enzyme with GST (Homo sapiens, UniProt Q8N9F0); conditions: L-aspartate as substrate
Description: as §1, §2

[4] = substrate: CC(=O)SCCNC(=O)CCNC(=O)[C@H](O)C(C)(C)COP(=O)(O)OP(=O)(O)OC[C@H]1O[C@@H](n2cnc3c(N)ncnc32)[C@H](O)[C@@H]1OP(=O)(O)O; assay: purified protein, by the assay type; conditions: other: acetyl-CoA as substrate, MBP-ANAT fusion, sequential mechanism fit, pH 7.4
[5] = Enzyme stability on storage at 4° C. and freeze-thaw cycles; type: physicochemical; conditions: stored at 4° C. for several days to one week, assayed daily
Description: as §3

Q: Which “catalytic efficiency as alternative substrate relative to physiological substrate” value (MBP-ANAT fusion enzyme [1]) does the source give for NC(C(=O)O)C(N)C(=O)O (stereo not drawn) [2,3-diaminosuccinate] here?
A: less than 10%

Q: With CCCCCCCCCCCCOCCOCCOCCOCCOCCOCCOCCOCCO [C12E8] as the molecule, how does the “extraction efficiency of membrane-bound ANAT” value (membrane-bound ANAT; non-ionic detergents, 1.5 CMC) read?
A: highest extraction efficiency

Q: Which “extraction efficiency of membrane-bound ANAT” value (membrane-bound ANAT; 8.7 CMC) does the source give for OC[C@H]1O[C@H](O[C@H]2[C@H](O)[C@@H](O)[C@H](OCCCCCC3CCCCC3)O[C@@H]2CO)[C@H](O)[C@@H](O)[C@@H]1O [Cymal 5] here?
A: effective

Q: What about the “loss of catalytic activity” value (MBP-ANAT fusion enzyme [2]) of the same molecule?
A: significant loss of activity

Q: For CCCCCCCCCCCCO[C@@H]1O[C@H](CO)[C@@H](O[C@H]2O[C@H](CO)[C@@H](O)[C@H](O)[C@H]2O)[C@H](O)[C@H]1O [DDM], which “extraction efficiency of membrane-bound ANAT” value (membrane-bound ANAT; 8.7 CMC) is on record?
A: effective

Q: With N[C@@H](CC(=O)O)C(=O)O [L-aspartate] as the molecule, how does the Km (MBP-ANAT fusion enzyme [1]; L-aspartate as substrate, MBP-ANAT fusion, sequential mechanism fit, pH 7.4) read?
A: 160 µM

Q: And the Km [3]?
A: 100 µM

Q: For N[C@@H](CCC(=O)O)C(=O)O [L-glutamate], which “catalytic efficiency as alternative substrate relative to physiological substrate” value (MBP-ANAT fusion enzyme [1]) is on record?
A: less than 1%

Q: What about the “alternative substrate activity” value (MBP-ANAT fusion enzyme [1]) of the same molecule?
A: profound loss of activity

Q: With CCCCCCCCCCCC[N+](C)(C)[O-] [LDAO] as the molecule, how does the “loss of catalytic activity” value (MBP-ANAT fusion enzyme [2]) read?
A: nearly complete loss of catalytic activity

Q: For CCCCCCCCCCCCOS(=O)(=O)[O-].[Na+] [SDS], which “loss of catalytic activity” value (MBP-ANAT fusion enzyme [2]) is on record?
A: nearly complete loss of catalytic activity

Q: For CCCCCCCCO[C@@H]1O[C@H](CO)[C@@H](O)[C@H](O)[C@H]1O [octylglucoside], which “loss of catalytic activity” value (MBP-ANAT fusion enzyme [2]) is on record?
A: significant loss of activity

Q: Which “alternative substrate activity” value (MBP-ANAT fusion enzyme [1]) does the source give for CC(C(=O)O)[C@H](N)C(=O)O (stereo partly drawn) [β-methylaspartate] here?
A: best of these few alternative substrates; also recorded: profound loss of activity

B1: MBP-ANAT fusion enzyme (Homo sapiens) (protein)
chain: T1 sequence (Q8N9F0 1-302)
Q: Which Km [4] does the source give for B1 here?
A: 3.1 µM

B2: native enzyme: human aspartate N-acetyltransferase without the MBP fusion domain (protein, UniProt Q8N9F0 1-302, looked up)
N-acetylaspartate synthetase: T1 sequence (Q8N9F0 1-302)
Q: Which “loss of activity on storage” value [5] does the source give for B2 here?
A: substantial loss of catalytic activity

Reference: US20180340156A1, “PURIFICATION OF A SOLUBLE AND ACTIVE FORM OF ASPARTATE N-[…]” (The University of Toledo, priority 2015, published 2018)
